According to patent US7470680B2, “Constrained compounds as CGRP-receptor antagonists” (Bristol-Myers Squibb Company, priority 2006, dated 2008):

Columns and labels:
[1] = target: T1, CGRP receptor (Homo sapiens, UniProt O60894+Q16602); test: Cyclic AMP functional antagonism assay in SK-N-MC cells; format: cell-based; set-up: SK-N-MC cells that endogenously express the human CGRP receptor; endogenous in cells; host or cells: SK-N-MC cells; conditions: Table 2; inhibition of 0.3 nM CGRP-induced cAMP in SK-N-MC cells; read-out: cAMP Function IC50
Experimental: Cyclic AMP Functional Antagonism Assay. Antagonism of the compounds of invention was determined by measuring the formation of cyclic AMP (adenosine 3′5′-cyclic monophosphate) in SK-N-MC cells that endogenously express the human CGRP receptor. CGRP receptor complex is coupled with Gs protein and CGRP binding to this complex leads to the cyclic AMP production via Gs-dependent activation of an adenylate cyclase (Juaneda C. et al., TiPS, 2000; 21:432-438). Consequently, CGRP receptor antagonists inhibit CGRP—induced cyclic AMP formation in SK-N-MC cells (Doods H, et al., Br J Pharmacol, 2000; 129(3):420-423). For cyclic AMP measurements SK—N-MC cells were incubated with 0.3 nM CGRP alone or in the presence of various concentrations of the compounds of invention for 30 min at room temperature. Compounds of invention were pre-incubated with SK—N-MC cells for 15 min before the addition of CGRP to allow receptor occupancy (Edvinsson et al., Eur J Pharmacol, 2001, 415:39-44). Cyclic AMP was extracted using the lysis reagent and its concentration was determined by radioimmunoassay using RPA559 cAMP SPA Direct Screening Assay Kit (Amersham Pharmacia Biotech). IC50 values were calculated using Excel fit.

[2] = target: T1, CGRP receptor; test: CGRP radioligand binding assay ([125I]-CGRP displacement, SK-N-MC homogenate); set-up: endogenous in cells; host or cells: SK-N-MC cells (homogenate/membrane pellet); conditions: displacement of [125I]-CGRP, SK-N-MC membranes
Experimental: CGRP Binding Assay. Tissue Culture. SK-N-MC cells were grown at 37° C. in 5% CO2 as a monolayer in medium consisting of MEM with Earle's salts and L-glutamine (Gibco) supplemented with 10% fetal bovine serum (Gibco). Cell Pellets. The cells were rinsed twice with phosphate-buffered saline (155 mM NaCl, 3.3 mM Na2HPO4, 1.1 mM KH2PO4, pH 7.4), and incubated for 5-10 min. at 4° C. in hypotonic lysis buffer consisting of 10 mM Tris (pH 7.4) and 5 mM EDTA. The cells were transferred from plates to polypropylene tubes (16×100 mm) and homogenized using a polytron. Homogenates were centrifuged at 32,000×g for 30 min. The pellets were resuspended in cold hypotonic lysis buffer with 0.1% mammalian protease inhibitor cocktail (Sigma) and assayed for protein concentration. The SK-N-MC homogenate was then aliquoted and stored at −80° C. until needed.
Radioligand Binding Assay. The compounds of invention were solubilized and carried through serial dilutions using 100% DMSO. Aliquots from the compound serial dilutions were further diluted 25 fold into assay buffer (50 mM Tris-Cl pH 7.5, 5 mM MgCl2, 0.005% Triton X-100) and transferred (volume 50 μl) into 96 well assay plates. [^125I]-CGRP (Amersham Biosciences) was diluted to 60 pM in assay buffer and a volume of […] was added to each well. SK-N-MC pellets were thawed, diluted in assay buffer with fresh 0.1% mammalian protease inhibitor cocktail (Sigma), and homogenized again. SK-N-MC homogenate (5 μg/well) was added in a volume of 100 μl. The assay plates were then incubated at room temperature for 2 h. Assays were stopped by addition of excess cold wash buffer (20 mM Tris-Cl pH 7.5, 0.1% BSA) immediately followed by filtration over glass fiber filters (Whatman GF/B) previously soaked in 0.5% PEI. Non-specific binding was defined with 1 μM beta-CGRP. Protein bound radioactivity was determined using a gamma or scintillation counter. The IC50 was defined as the concentration of a compound of invention required to displace 50% of radioligand binding.

T1 sequence (Q16602 23-461): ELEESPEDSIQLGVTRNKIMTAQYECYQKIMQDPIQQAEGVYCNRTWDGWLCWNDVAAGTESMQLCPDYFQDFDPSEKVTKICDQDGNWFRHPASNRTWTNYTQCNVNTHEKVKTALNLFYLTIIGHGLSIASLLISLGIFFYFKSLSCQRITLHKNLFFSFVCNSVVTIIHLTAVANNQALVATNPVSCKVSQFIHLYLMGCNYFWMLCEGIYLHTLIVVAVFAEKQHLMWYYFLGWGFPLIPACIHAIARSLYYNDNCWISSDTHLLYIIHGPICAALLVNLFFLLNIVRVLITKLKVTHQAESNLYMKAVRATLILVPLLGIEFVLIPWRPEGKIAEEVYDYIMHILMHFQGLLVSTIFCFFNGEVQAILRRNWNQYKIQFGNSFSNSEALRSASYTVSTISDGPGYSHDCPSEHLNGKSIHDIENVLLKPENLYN
T1 sequence (O60894 27-148): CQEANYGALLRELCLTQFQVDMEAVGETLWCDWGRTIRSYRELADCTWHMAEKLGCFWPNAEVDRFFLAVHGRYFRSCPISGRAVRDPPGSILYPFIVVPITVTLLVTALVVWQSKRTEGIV

| Structure (SMILES) | IC50 [1] | IC50 ([2]; Table 2) | IC50 ([2]; Table 1) |
| --- | --- | --- | --- |
| CC(C)(C)CCN1Cc2c(ccc3[nH]ncc23)C[C@@H](NC(=O)N2CCC(N3Cc4ccccc4NC3=O)CC2)C1=O | 0.01 to 10 nM | 0.01 to 10 nM | – |
| O=C(C[C@@H]1Cc2cc(Cl)c3[nH]ncc3c2CN(Cc2ncc[nH]2)C1=O)N1CCC(N2Cc3ccccc3NC2=O)CC1 | 0.01 to 10 nM | 0.01 to 10 nM | – |
| O=C(C[C@@H]1Cc2cc(Cl)c3[nH]ncc3c2CN(Cc2ccncc2)C1=O)N1CCC(c2cc3ccccc3[nH]c2=O)CC1 | 0.01 to 10 nM | 0.01 to 10 nM | – |
| O=C(N[C@@H]1Cc2cc(Cl)c3[nH]ncc3c2CN(Cc2ccccc2)C1=O)N1CCC(N2Cc3ccccc3NC2=O)CC1 | 0.01 to 10 nM | 0.01 to 10 nM | – |
| CC(C)(C)CN1Cc2c(cc(Cl)c3[nH]ncc23)C[C@@H](CC(=O)N2CCC(n3cc(-c4ccccc4)[nH]c3=O)CC2)C1=O | 0.01 to 10 nM | 0.01 to 10 nM | – |
| O=C(C[C@@H]1Cc2cc(Cl)c3[nH]ncc3c2CN(Cc2ccncc2)C1=O)N1CCC(N2Cc3ccccc3NC2=O)CC1 | 0.01 to 10 nM | 0.01 to 10 nM | – |
| CC(C)(C)CN1Cc2c(cc(Cl)c3[nH]ncc23)C[C@@H](CC(=O)N2CCC(N3Cc4ccccc4CC3=O)CC2)C1=O | 0.01 to 10 nM | 0.01 to 10 nM | – |
| CC(C)(C)CN1Cc2c(ccc3[nH]ncc23)CC(NC(=O)N2CCC(N3Cc4ccccc4NC3=O)CC2)C1=O (centres unmarked) | 0.01 to 10 nM | 0.01 to 10 nM | – |
| COCCn1ncc2c3c(cc(Cl)c21)C[C@@H](CC(=O)N1CCC(N2CCc4ccccc4NC2=O)CC1)C(=O)N(CC(F)(F)F)C3 | – | – | 0.01 to 10 nM |
| CC(C)(C)CN1Cc2c(cc(Cl)c3[nH]ncc23)C[C@@H](CC(=O)N2CCC3(CC2)NC(=O)Nc2ccccc23)C1=O | 0.01 to 10 nM | 0.01 to 10 nM | – |
| O=C(C[C@@H]1Cc2cc(Cl)c3[nH]ncc3c2CN(CC(F)(F)F)C1=O)N1CCC(N2CCc3ncccc3NC2=O)CC1 | – | – | 0.01 to 10 nM |
| COc1cc2ccccc2cc1C1CCN(C(=O)N[C@@H]2Cc3cc(Cl)c4[nH]ncc4c3CN(CC(C)(C)C)C2=O)CC1 | – | > 1000 nM | – |
| Cc1cc2c(c3cn[nH]c13)CN(CC(F)(F)F)C(=O)[C@H](CC(=O)N1CCC(c3cc4ccccc4[nH]c3=O)CC1)C2 | – | 0.01 to 10 nM | – |
| CC(C)(C)CN1Cc2c(cc(Cl)c3[nH]ncc23)C[C@@H](CC(=O)N2CCC(N3Cc4ccccc4NC3=O)CC2)C1=O | 0.01 to 10 nM | 0.01 to 10 nM | – |
| CC(C)(C)CN1Cc2c(cc(Cl)c3[nH]ncc23)C[C@@H](CC(=O)N2CCC(c3cc4sc(Cl)cc4[nH]c3=O)CC2)C1=O | – | – | 0.01 to 10 nM |
| COCn1ncc2c3c(cc(Cl)c21)C[C@@H](CC(=O)N1CCC(N2CCc4ccccc4NC2=O)CC1)C(=O)N(CC(F)(F)F)C3 | – | – | 10 to 100 nM |
| CC(C)(C)CN1Cc2c(cc(Cl)c3[nH]ncc23)C[C@@H](NC(=O)N2CCC(N3Cc4ccccc4NC3=O)CC2)C1=O | 0.01 to 10 nM | 0.01 to 10 nM | – |
| CC(C)(C)CN1Cc2c(cc(Cl)c3[nH]ncc23)C[C@@H](CC(=O)Nc2ccc3c(c2)CCC2(C3)NC(=O)NC2=O)C1=O (some centres unmarked) | – | 0.01 to 10 nM | – |
| O=C(C[C@@H]1Cc2cc(Cl)c3[nH]ncc3c2CN(Cc2ccncc2)C1=O)N1CCC(N2Cc3cccc(F)c3NC2=O)CC1 | 0.01 to 10 nM | 0.01 to 10 nM | – |
| O=C(C[C@@H]1Cc2cc(Cl)c3[nH]ncc3c2CN(CC(F)(F)F)C1=O)N1CCC(c2cc3ccccc3[nH]c2=O)CC1 | – | 0.01 to 10 nM | – |
| CC(C)(C)CN1Cc2c(ccc3[nH]ncc23)C[C@@H](CC(=O)N2CCC(N3Cc4ccccc4NC3=O)CC2)C1=O [drawing 135] | – | 100 to 1000 nM | – |
| O=C(C[C@@H]1Cc2cc(Cl)c3[nH]ncc3c2CN(Cc2ccncc2)C1=O)N1CCC(n2cc(-c3ccccc3)[nH]c2=O)CC1 | 0.01 to 10 nM | 0.01 to 10 nM | – |

| Structure (SMILES) | IC50 [1] | IC50 ([2]; Table 2) | IC50 ([2]; Table 1) |
| --- | --- | --- | --- |
| O=C(C[C@@H]1Cc2cc(Cl)c3[nH]ncc3c2CN(CC(F)(F)F)C1=O)N1CCC(n2c(=O)[nH]c3ccccc32)CC1 | – | – | 0.01 to 10 nM |
| O=C(C[C@@H]1Cc2cc(Cl)c3[nH]ncc3c2CN(CC(F)(F)F)C1=O)N1CCC(N2CCc3cccnc3NC2=O)CC1 | – | – | 0.01 to 10 nM |
| O=C1NC(=O)C(C2CCN(C(=O)C[C@@H]3Cc4cc(Cl)c5[nH]ncc5c4CN(CC(F)(F)F)C3=O)CC2)N1 (some centres unmarked) | – | – | 100 to 1000 nM |
| CC(C)(C)CN1Cc2c(cc(Cl)c3[nH]ncc23)C[C@@H](CC(=O)N2CCC(n3cc(-c4ccccn4)[nH]c3=O)CC2)C1=O | 0.01 to 10 nM | 0.01 to 10 nM | – |
| O=C(C[C@@H]1Cc2cc(Cl)c3[nH]ncc3c2CN(CC(F)(F)F)C1=O)N1CCC(N2CCc3cccc(F)c3NC2=O)CC1 | – | – | 10 to 100 nM |
| CC(C)(C)CN1Cc2c(cc(Cl)c3[nH]ncc23)C[C@@H](CC(=O)N2CCC(c3cc4ccccc4[nH]c3=O)CC2)C1=O | 0.01 to 10 nM | 0.01 to 10 nM | – |
| O=C(C[C@@H]1Cc2cc(Cl)c3[nH]ncc3c2CN(Cc2ccncc2)C1=O)N1CCC(c2cc3ccccc3c[n+]2[O-])CC1 | – | 0.01 to 10 nM | – |
| CCc1cc2c(c3cn[nH]c13)CN(CC(F)(F)F)C(=O)[C@H](CC(=O)N1CCC(c3cc4cccc(F)c4[nH]c3=O)CC1)C2 | – | 10 to 100 nM | – |
| CC(C)(C)CN1Cc2c(cc(Cl)c3[nH]ncc23)C[C@@H](CC(=O)N2CCC(N3Cc4cccc(F)c4NC3=O)CC2)C1=O | 0.01 to 10 nM | 0.01 to 10 nM | – |
| O=C(N[C@@H]1Cc2cc3cn[nH]c3cc2CN(Cc2ccccc2)C1=O)N1CCC(N2Cc3ccccc3NC2=O)CC1 | – | 0.01 to 10 nM | – |
| O=C(O[C@@H]1Cc2cc(Cl)c3[nH]ncc3c2CN(CC(F)(F)F)C1=O)N1CCC(N2CCc3ccccc3NC2=O)CC1 | – | – | 0.01 to 10 nM |
| O=C(C[C@@H]1Cc2cc(Cl)c3[nH]nc(Cl)c3c2CN(CC(F)(F)F)C1=O)N1CCC(n2c(=O)[nH]c3ncccc32)CC1 | – | – | 0.01 to 10 nM |
| O=C(C[C@@H]1Cc2cc(Cl)c3[nH]ncc3c2CN(CC(F)(F)F)C1=O)N1CCC(n2c(=O)[nH]c3c2ccc[n+]3[O-])CC1 | – | – | 10 to 100 nM |
| CC(C)(C)CN1Cc2c(cc(Cl)c3[nH]ccc23)C[C@@H](CC(=O)N2CCC(c3cc4sccc4[nH]c3=O)CC2)C1=O | – | – | 0.01 to 10 nM |
| CC(C)(C)CN1Cc2c(cc(Cl)c3[nH]ncc23)C[C@@H](CC(=O)N2CCC(c3cc4ccc(Cl)cc4[nH]c3=O)CC2)C1=O | – | 0.01 to 10 nM | – |
| O=C(C[C@@H]1Cc2cc(Br)c3[nH]nc(Cl)c3c2CN(CC(F)(F)F)C1=O)N1CCC(n2c(=O)[nH]c3ncccc32)CC1 | – | – | 0.01 to 10 nM |
| CC(C)(C)CN1Cc2c(cc(Cl)c3[nH]ncc23)C[C@@H](N/C(=N/C#N)N2CCC(c3cc4ccccc4[nH]c3=O)CC2)C1=O | – | 0.01 to 10 nM | – |
| CC(C)(C)CN1Cc2c(ccc3[nH]ncc23)C[C@@H](NC(=O)N2CCC3(CC2)N=C(c2ccccc2)NC3=O)C1=O | – | 100 to 1000 nM | – |
| CC(C)(C)CN1Cc2c(ccc3[nH]ncc23)C[C@@H](CC(=O)N2CCC(N3Cc4ccccc4NC3=O)CC2)C1=O [drawing 84] | 0.01 to 10 nM | – | – |
| O=C(O[C@@H]1Cc2cc(Cl)c3[nH]ncc3c2CN(CC(F)(F)F)C1=O)N1CCC(n2c(=O)[nH]c3ncccc32)CC1 | – | – | 0.01 to 10 nM |
| Cn1ncc2c3c(cc(Cl)c21)C[C@@H](CC(=O)N1CCC(N2CCc4ccccc4NC2=O)CC1)C(=O)N(CC(F)(F)F)C3 | – | – | 0.01 to 10 nM |
